The data set in a line: Metabolic stability of test compounds using human liver microsomes. In kind it is in vitro ADME. Conditions: for differentiation of t1/2 (longer) as compared to udenafil: human liver microsomes, assay conditions 0.5 mg/mL, 1 µM test compd; for half-life at 1 µM: pooled human liver microsomes, in vitro t1/2, 0.5 mg/mL human liver microsomes, 1 μM test compound, 2 mM NADPH, pH 7.4, 37° C., experiment run an additional three times, read-out: Avg t1/2 (min) ± SD. How it is done: Determination of Metabolic Stability of Test Compounds using Human Liver Microsomes. The metabolic stability of compounds of the invention was tested using pooled liver microsomal incubations. Full scan LC-MS analysis was then performed to detect major metabolites. Samples of the test compounds, exposed to pooled human liver microsomes, were analyzed using HPLC-MS (or MS/MS) detection. For determining metabolic stability, multiple reaction monitoring (MRM) was used to measure the disappearance of the test compounds. For metabolite detection, Q1 full scans were used as survey scans to detect the major metabolites.
Experimental Procedures. Human liver microsomes (“HLM”; 20 mg/mL) were obtained from Xenotech, LLC (Lenexa, Kans.). β-nicotinamide adenine dinucleotide phosphate, reduced form (NADPH), magnesium chloride (MgCl2), and dimethyl sulfoxide (DMSO) were purchased from Sigma-Aldrich.
Stock solutions (7.5 mM) of Compounds 100, 103, 108 and 210 and udenafil were prepared in DMSO. The 7.5 mM stock solutions were diluted to 50 μM in acetonitrile (ACN). The 20 mg/mL human liver microsomes were diluted to 0.625 mg/mL in 0.1 M potassium phosphate buffer, pH 7.4, containing 3 mM MgCl2. The diluted microsomes (375 μL) were added to wells of a 96-well deep-well polypropylene plate in triplicate. Ten μL of the 50 μM test compound solution was added to the microsomes and the mixture was pre-warmed for 10 minutes. Reactions were initiated by addition of 125 μL of pre-warmed NADPH solution (8 mM NADPH in 0.1M potassium phosphate buffer, pH 7.4, containing 3 mM MgCl2). […] The reaction mixtures were incubated at 37° C., and 50 μL aliquots were removed at 0, 5, 10, 20, and 30 minutes and added to shallow-well 96-well plates which contained […] of ice-cold ACN with internal standard to stop the reactions. The plates were stored at 4° C. for 20 minutes after which […] of water was added to the wells of the plate before centrifugation to pellet precipitated proteins. Supernatants were transferred to another 96-well plate and analyzed for amounts of parent remaining by LC-MS/MS using an Applied Bio-systems API 4000 mass spectrometer.
The in vitro t1/2s for test compounds were calculated from the slopes of the linear regression of % parent remaining (ln) vs incubation time relationship using the following formula:
in vitro t1/2=0.693/k, where k=−[slope of linear regression of % parent remaining(ln) vs incubation time]. Data analysis was performed using Microsoft Excel Software.
(Microsomes from liver hold many membrane-bound enzymes, among them those of drug oxidation.)

With `[2H]C([2H])(CC1CCCN1C)NS(=O)(=O)c1ccc(OCCC)c(-c2nc3c(CCC)nn(C([2H])([2H])[2H])c3c(=O)[nH]2)c1` (stereo not shown) [Compound 100], the “differentiation of t1/2 (longer) as compared to udenafil” value is given as around 20% and the half-life at 1 µM came to 41.3 ± 1.5 min.
In the same order, the values of `[2H]C([2H])(CC1CCCN1C)NS(=O)(=O)c1ccc(OC([2H])([2H])C([2H])([2H])C([2H])([2H])[2H])c(-c2nc3c(CC([2H])([2H])C([2H])([2H])[2H])nn(C([2H])([2H])[2H])c3c(=O)[nH]2)c1` (stereo not shown) [Compound 210, 3-(1-(Methyl-d3)-7-oxo-3-(2,2,3,3,3-d5-propyl)-6,7-dihydro-1H-pyrazolo[4,3-d]pyrimidin-5-yl)-N-(2-(1-methylpyrrolidin-2-yl)-1,1-d2-ethyl)-4-(propoxy-d7)-benzenesulfonamide] are around 20% and 42.4 ± 3.74 min.
`CCCOc1ccc(S(=O)(=O)NCCC2CCCN2C)cc1-c1nc2c(CCC)nn(C)c2c(=O)[nH]1` (stereo not shown) [Udenafil, 3-(1-methyl-7-oxo-3-propyl-6,7-dihydro-1H-pyrazolo[4,3-d]pyrimidin-5-yl)-N-[2-(1-methylpyrrolidin-2-yl)ethyl]-4-propoxybenzenesulfonamide, reference compound]: the half-life at 1 µM turned out to be 33.6 ± 2.2 min.
Take `[2H]C([2H])([2H])n1nc(CCC)c2nc(-c3cc(S(=O)(=O)NCCC4CCCN4C)ccc3OCCC)[nH]c(=O)c21` (stereo not shown) [Compound 108]: the half-life at 1 µM is 36.2 ± 1.5 min.
With `[2H]C([2H])(CC1CCCN1C)NS(=O)(=O)c1ccc(OCCC)c(-c2nc3c(CCC)nn(C)c3c(=O)[nH]2)c1` (stereo not shown) [Compound 103], the half-life at 1 µM worked out at 37.2 ± 1.8 min.
